Results on 2 substances are retold here after paper PMC3605428, “A Readily Applicable Strategy to Convert Peptides to Peptoid-based Therapeutics” (PLoS ONE, 2013).

The test system of this assay is 5-helix bundle (5HB) protein mimicking hRSV fusion protein F. Description: 5HB-based competitive fluorescence polarization (FP) binding assay. Set-up: species or system human respiratory syncytial virus (hRSV). The following applies: 200 µM peptide; inhibition of Fl-C35 tracer (5 nM) binding to 5HB (20 nM); FP buffer 20 mM PBS pH 7.4, 500 mM NaCl, 0.01% Tween-20, 0.05 mg/ml bovine gamma globulin; 1 h + 30 min at room temperature; ex 485/em 530 nm. As to the method: Competitive FP binding assays of the C20 derivatives were carried out as previously described. Briefly, a 5-helix bundle (5HB) protein was designed to mimic a post-fusion structure of fusion protein F (6-helix bundle) and provide a specific binding site for screening potential human respiratory syncytial virus (hRSV) entry inhibitors. Using a 5HB protein as a target protein and a fluorescently labeled 35 amino acid-long peptide (Fl-C35, sequence shown in Table S1) as a tracer, we performed a competitive FP assay to evaluated the binding affinity of each C20 analogue prepared in this study. In each well of a black 96-well plate (Corning Inc. Lowell, MA, USA), 20 nM of the 5HB with increasing concentrations of each peptomer in FP buffer (20 mM PBS at pH 7.4, 500 mM NaCl, 0.01% (v/v) Tween-20, and 0.05 mg/ml bovine gamma globulin) in a final volume of 185 µL was incubated for 1h at room temperature. Fl-C35 was then added to a final concentration of 5 nM followed by 30 min incubation at room temperature. The FP responses were monitored using a Synergy4 plate reader (Biotek, Winooski, VT, USA) with an excitation wavelength of 485 nm and an emission wavelength of 530 nm. The percentage of inhibition (% Inhibition) was calculated from the equation: % inhibition = 100×[1-(mP-mPf)/(mPb-mPf)]. Unbound Fl-C35 (mPf), bound Fl-C35 (mPb) and the bound inhibitor to the 5HB (mP) are used accordingly.
Sample preparation for FP measurements.

Non-standard residues stand in square brackets, D forms with d. No end group written: not given here. *: point of attachment. FITC = O=C1OC2(c3ccc(O)cc3Oc3cc(O)ccc32)c2ccc(NC(=S)*)cc21; Sar = CNCC(=O)O

Turning to “[Sar]SQVNEKINQSLAFIRKSDE [Sar1, sarcosine-substituted C20 peptide]”, the “% Inhibition at 200 µM” value came to 15.74%.

“{FITC}-YDPLVFPSDEFDASISQVNEKINQSLAFIRKSDEL [Fl-C35, fluorescently labeled 35 amino acid-long peptide used as tracer, reference compound]”: the “% Inhibition at 200 µM” value is reported as 100%.
